Measurements as given in patent publication US11034650B2, “Compounds useful for treating a Mannheimia haemolytica or Histophilus somni infection” (Intervet Inc., priority 2016, dated 2021).
Values after ≈ are worked out from the molar mass of the structure shown.

Tests used:
Format in all cases: cell-based
[1] = tested on: Mannheimia haemolytica MH 13065 (XB0446-6003.9, BRD field isolate); test: MIC, broth-microdilution (CLSI VET01-A4), strain MH 13065; details: Mannheimia haemolytica strain MH 13065, broth-microdilution; unit assumed
Outline: (§1)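 MIC recorded as the lowest drug level giving no growth visible to the naked eye, from two-fold serial dilutions. Interpretation followed VET01-S3.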

[2] = tested on: Pasteurella multocida PM 6391 (ATCC 43137, reference strain); test: MIC, broth-microdilution (CLSI VET01-A4), strain PM 6391; details: Pasteurella multocida strain PM 6391, broth-microdilution; unit assumed
Outline: as §1

[3] = tested on: Mannheimia haemolytica MH 10720 (154, BRD field isolate); test: MIC, broth-microdilution (CLSI VET01-A4), strain MH 10720; details: Mannheimia haemolytica strain MH 10720, broth-microdilution; unit assumed
Outline: as §1

[4] = tested on: Mannheimia haemolytica MH 13093 (XB0472-6014.1, BRD field isolate); test: MIC, broth-microdilution (CLSI VET01-A4), strain MH 13093; details: Mannheimia haemolytica strain MH 13093, broth-microdilution; unit assumed
Outline: as §1

[5] = tested on: Pasteurella multocida PM 6267 (P 2225 (L386), reference strain, mouse infection strain); test: MIC, broth-microdilution (CLSI VET01-A4), strain PM 6267; details: Pasteurella multocida strain PM 6267, broth-microdilution; unit assumed
Outline: as §1

[6] = tested on: Mannheimia haemolytica MH 12587 (1071, BRD field isolate, macrolide-resistance: erm+, E+); test: MIC, broth-microdilution (CLSI VET01-A4), strain MH 12587; details: Mannheimia haemolytica strain MH 12587, broth-microdilution; unit assumed
Outline: as §1

[7] = tested on: Mannheimia haemolytica MH 6357 (M7/2, reference strain, cattle infection strain); test: MIC, broth-microdilution (CLSI VET01-A4), strain MH 6357; details: Mannheimia haemolytica strain MH 6357, broth-microdilution; unit assumed
Outline: as §1

[8] = tested on: Pasteurella multocida PM 10775 (080130003051, BRD field isolate); test: MIC, broth-microdilution (CLSI VET01-A4), strain PM 10775; details: Pasteurella multocida strain PM 10775, broth-microdilution; unit assumed
Outline: as §1

[9] = tested on: Pasteurella multocida PM 12080 (IV102277-0093, BRD field isolate); test: MIC, broth-microdilution (CLSI VET01-A4), strain PM 12080; details: Pasteurella multocida strain PM 12080, broth-microdilution; unit assumed
Outline: as §1

[10] = tested on: Mannheimia haemolytica MH 6374 (ATCC 33396, reference strain); test: MIC, broth-microdilution (CLSI VET01-A4), strain MH 6374; details: Mannheimia haemolytica strain MH 6374, broth-microdilution; unit assumed
Outline: as §1

Row | MIC PM 6391 [2] [µg/mL] | MIC PM 6267 [5] [µg/mL] | MIC PM 10775 [8] [µg/mL] | MIC PM 12080 [9] [µg/mL] | SMILES | MIC MH 13065 [1] [µg/mL] | MIC MH 10720 [3] [µg/mL] | MIC MH 13093 [4] [µg/mL] | MIC MH 12587 [6] [µg/mL] | MIC MH 6357 [7] [µg/mL] | MIC MH 6374 [10] [µg/mL]
1 | ≤ 0.1 | ≤ 0.1 | ≤ 0.1 | ≤ 0.1 | CC[C@H](C)[C@H](NC(=O)c1ccc(C#Cc2ccc(CN3CC(C)OC(C)C3)cc2)cc1)C(=O)NO (stereo partly drawn) [Compound 191] | 6.3 (≈ 13.2 µM) | 1.6 (≈ 3.35 µM) | 12.5 (≈ 26.2 µM) | 25 (≈ 52.3 µM) | 6.3 (≈ 13.2 µM) | 25 (≈ 52.3 µM)
2 | 0.8 (≈ 1.89 µM) | 0.4 (≈ 0.944 µM) | ≤ 0.1 | 0.8 (≈ 1.89 µM) | CC(C)(C)CNCc1ccc(C#Cc2ccc(C(=O)N[C@@H](CO)C(=O)NO)cc2)cc1 [Compound 136] | 12.5 (≈ 29.5 µM) | 1.6 (≈ 3.78 µM) | 25 (≈ 59 µM) | 25 (≈ 59 µM) | 3.1 (≈ 7.32 µM) | 12.5 (≈ 29.5 µM)
3 | 0.4 (≈ 0.762 µM) | 0.8 (≈ 1.52 µM) | ≤ 0.1 | 0.2 (≈ 0.381 µM) | CC(C)([C@H](NC(=O)c1ccc(C#Cc2ccc(CNCc3ccco3)nc2)cc1)C(=O)NO)S(C)(=O)=O [Compound 354] | 1.6 (≈ 3.05 µM) | 0.2 (≈ 0.381 µM) | 0.8 (≈ 1.52 µM) | 1.6 (≈ 3.05 µM) | 0.4 (≈ 0.762 µM) | 0.8 (≈ 1.52 µM)
4 | 1.6 (≈ 3.93 µM) | 0.4 (≈ 0.982 µM) | ≤ 0.1 | 1.6 (≈ 3.93 µM) | O=C(N[C@@H](CO)C(=O)NO)c1ccc(C#Cc2ccc(CNC3CCC3)cc2)cc1 [Compound 147] | 6.3 (≈ 15.5 µM) | 3.1 (≈ 7.61 µM) | 6.3 (≈ 15.5 µM) | 6.3 (≈ 15.5 µM) | 3.1 (≈ 7.61 µM) | 6.3 (≈ 15.5 µM)
5 | 0.2 (≈ 0.472 µM) | 25 (≈ 59 µM) | 3.1 (≈ 7.32 µM) | 1.6 (≈ 3.78 µM) | COCCNCc1ccc(C#Cc2ccc(C(=O)N[C@@H](C(C)=O)C(=O)NO)cc2)cc1 [Compound 398] | 12.5 (≈ 29.5 µM) | 6.3 (≈ 14.9 µM) | 25 (≈ 59 µM) | 1.6 (≈ 3.78 µM) | 6.3 (≈ 14.9 µM) | 6.3 (≈ 14.9 µM)
6 | 0.8 (≈ 1.6 µM) | 0.8 (≈ 1.6 µM) | ≤ 0.1 | ≤ 0.1 | CC(C)(C(NC(=O)c1ccc(C#Cc2ccc(CNCc3cccnc3)cc2)cc1)C(=O)NO)[N+](=O)[O-] (stereo not drawn) [Compound 286] | 0.4 (≈ 0.798 µM) | ≤ 0.1 | 0.8 (≈ 1.6 µM) | 1.6 (≈ 3.19 µM) | 0.4 (≈ 0.798 µM) | 0.8 (≈ 1.6 µM)
7 | ≤ 0.1 | ≤ 0.1 | ≤ 0.1 | ≤ 0.1 | CC(C)[C@H](NC(=O)c1ccc(C#Cc2ccc(CNCc3nccs3)cc2)cc1)C(=O)NO [Compound 199] | 0.2 (≈ 0.432 µM) | ≤ 0.1 | 0.4 (≈ 0.865 µM) | 0.4 (≈ 0.865 µM) | 0.2 (≈ 0.432 µM) | 0.4 (≈ 0.865 µM)
8 | 0.4 (≈ 0.982 µM) | ≤ 0.1 | ≤ 0.1 | 0.2 (≈ 0.491 µM) | CCCNCc1ccc(C#Cc2ccc(C(=O)N[C@H](C(=O)NO)C(C)C)cc2)cc1 [Compound 206] | 3.1 (≈ 7.61 µM) | 0.8 (≈ 1.96 µM) | 6.3 (≈ 15.5 µM) | 6.3 (≈ 15.5 µM) | 3.1 (≈ 7.61 µM) | 3.1 (≈ 7.61 µM)
9 | 0.4 (≈ 0.923 µM) | ≤ 0.1 | ≤ 0.1 | 0.2 (≈ 0.461 µM) | CC(C)[C@H](NC(=O)c1ccc(C#Cc2ccc(CNC3CCCC3)cc2)cc1)C(=O)NO [Compound 209] | 6.3 (≈ 14.5 µM) | 1.6 (≈ 3.69 µM) | 12.5 (≈ 28.8 µM) | 12.5 (≈ 28.8 µM) | 3.1 (≈ 7.15 µM) | 6.3 (≈ 14.5 µM)
10 | 0.4 (≈ 0.845 µM) | 0.8 (≈ 1.69 µM) | ≤ 0.1 | 0.4 (≈ 0.845 µM) | CC(C)(O)[C@H](NC(=O)c1ccc(C#Cc2ccc(CNCc3ccncc3)nc2)cc1)C(=O)NO [Compound 329] | 0.8 (≈ 1.69 µM) | ≤ 0.1 | 1.6 (≈ 3.38 µM) | 3.1 (≈ 6.55 µM) | 0.8 (≈ 1.69 µM) | 1.6 (≈ 3.38 µM)
11 | ≤ 0.1 | ≤ 0.1 | ≤ 0.1 | ≤ 0.1 | CC(C)(O)[C@H](NC(=O)c1ccc(C#Cc2ccc(CNC3CC3)cc2)cc1)C(=O)NO [Compound 219] | 0.4 (≈ 0.949 µM) | ≤ 0.1 | 0.8 (≈ 1.9 µM) | 1.6 (≈ 3.8 µM) | 1.6 (≈ 3.8 µM) | 0.4 (≈ 0.949 µM)
12 | ≤ 0.1 | 1.6 (≈ 3.37 µM) | 0.4 (≈ 0.843 µM) | ≤ 0.1 | CON=C(C)[C@H](NC(=O)c1ccc(C#Cc2ccc(CNCc3ccco3)cc2)cc1)C(=O)NO [Compound 391] | 0.4 (≈ 0.843 µM) | 0.4 (≈ 0.843 µM) | 0.4 (≈ 0.843 µM) | ≤ 0.1 | 0.4 (≈ 0.843 µM) | 0.4 (≈ 0.843 µM)
13 | 0.8 (≈ 1.78 µM) | 0.4 (≈ 0.89 µM) | 0.2 (≈ 0.445 µM) | 0.8 (≈ 1.78 µM) | CC(C)(O)[C@H](NC(=O)c1ccc(C#Cc2ccc(CNC3CCCC3)cc2)cc1)C(=O)NO [Compound 227] | 6.3 (≈ 14 µM) | 1.6 (≈ 3.56 µM) | 12.5 (≈ 27.8 µM) | 25 (≈ 55.6 µM) | 12.5 (≈ 27.8 µM) | 12.5 (≈ 27.8 µM)
14 | 3.1 (≈ 6.75 µM) | 0.4 (≈ 0.87 µM) | ≤ 0.1 | 1.6 (≈ 3.48 µM) | CC[C@H](C)[C@H](NC(=O)c1ccc(C#Cc2ccc(CNCc3ncc[nH]3)cc2)cc1)C(=O)NO [Compound 184] | 6.3 (≈ 13.7 µM) | 0.8 (≈ 1.74 µM) | 6.3 (≈ 13.7 µM) | 12.5 (≈ 27.2 µM) | 12.5 (≈ 27.2 µM) | 6.3 (≈ 13.7 µM)
15 | 0.2 (≈ 0.418 µM) | 6.3 (≈ 13.2 µM) | 0.8 (≈ 1.67 µM) | 0.4 (≈ 0.836 µM) | CON=C(C)[C@H](NC(=O)c1ccc(C#Cc2ccc(CNCC3CCCO3)cc2)cc1)C(=O)NO (stereo partly drawn) [Compound 394] | 3.1 (≈ 6.48 µM) | 1.6 (≈ 3.34 µM) | 3.1 (≈ 6.48 µM) | 0.8 (≈ 1.67 µM) | 3.1 (≈ 6.48 µM) | 6.3 (≈ 13.2 µM)
16 | ≤ 0.1 | ≤ 0.1 | ≤ 0.1 | ≤ 0.1 | CC(C)([C@H](NC(=O)c1ccc(C#Cc2ccc(CNCc3nccs3)s2)cc1)C(=O)NO)S(C)(=O)=O [Compound 369] | 0.4 (≈ 0.732 µM) | ≤ 0.1 | 0.4 (≈ 0.732 µM) | 0.4 (≈ 0.732 µM) | 0.4 (≈ 0.732 µM) | 0.2 (≈ 0.366 µM)
17 | 0.8 (≈ 1.56 µM) | 0.2 (≈ 0.391 µM) | ≤ 0.1 | 0.4 (≈ 0.782 µM) | CC(C)([C@H](NC(=O)c1ccc(C#Cc2ccc(CNC3CCCC3)cc2)cc1)C(=O)NO)S(C)(=O)=O [Compound 264] | 6.3 (≈ 12.3 µM) | 1.6 (≈ 3.13 µM) | 6.3 (≈ 12.3 µM) | 12.5 (≈ 24.4 µM) | 12.5 (≈ 24.4 µM) | 12.5 (≈ 24.4 µM)

Row | SMILES | MIC PM 6391 [2] [µg/mL] | MIC PM 6267 [5] [µg/mL] | MIC PM 10775 [8] [µg/mL] | MIC PM 12080 [9] [µg/mL] | MIC MH 13065 [1] [µg/mL] | MIC MH 10720 [3] [µg/mL] | MIC MH 13093 [4] [µg/mL] | MIC MH 12587 [6] [µg/mL] | MIC MH 6357 [7] [µg/mL] | MIC MH 6374 [10] [µg/mL]
18 | CC(C)([C@H](NC(=O)c1ccc(C#Cc2ccc(CNCc3ccco3)cc2)cc1)C(=O)NO)S(C)(=O)=O [C.270] | ≤ 0.1 | ≤ 0.1 | ≤ 0.1 | ≤ 0.1 | 0.2 (≈ 0.382 µM) | ≤ 0.1 | 0.4 (≈ 0.764 µM) | 0.8 (≈ 1.53 µM) | 0.8 (≈ 1.53 µM) | 0.2 (≈ 0.382 µM)
